Measurements: patent US7553966B2, “Glucocorticoid mimetics, methods of making them, pharmaceutical compositions, and uses thereof” (Boehringer Ingelheim Pharmaceuticals, Inc., priority 2002, dated 2009)

Experiments:
glucocorticoid receptor = assay: Glucocorticoid Receptor Cell Assays (agonist activity in one or more of the above assays); format: cell-based; details: qualitative statement; assay not specified
Method: B. Glucocorticoid Receptor Cell Assays
1. Induction of Aromatase in Fibroblasts (Cell Assay for Transactivation)
Dexamethasone, a synthetic ligand to the glucocorticoid receptor (GR), induces expression of aromatase in human foreskin fibroblast cells. The activity of aromatase is measured by the conversion of testosterone to estradiol in culture media.
On the day of the experiment, the media in the wells is replaced with fresh media. Cells are treated with test compounds to final concentrations of 10^−5 M to 10^−8 M, and testosterone to a final concentration of 300 ng/mL. Each well has a total volume of 100 μL. Samples are made in duplicates. Control wells include: (a) wells that receive testosterone only, and (b) wells that receive testosterone plus 2 μM of dexamethasone to provide maximum induction of aromatase. Plates are incubated at 37° C. overnight (15 to 18 hours), and supernatants are harvested at the end of incubation. […] The amount of estradiol is inversely proportional to the ELISA signals in each well. The extent of aromatase induction by test compounds is expressed as a relative percentage to dexamethasone. EC50 values of test compounds are derived by non-linear curve fitting.
2. Inhibition of IL-6 Production in Fibroblasts (Cell Assay for Transrepression)
Human foreskin fibroblast cells produce IL-6 in response to stimulation by pro-inflammatory cytokine IL-1.
On the next day, media in the wells is replaced with fresh media. Cells are treated with IL-1 (rhIL-1α, R&D Systems Cat. No. 200-LA) to a final concentration of 1 ng/mL, and with test compounds to final concentrations of 10^−5 M to 10^−8 M, in a total volume of 200 μL per well. Samples are done in duplicates. […] Positive control wells receive IL-1 only and represent maximum (or 100%) amount of IL-6 production. Plates are incubated at 37° C. overnight (15 to 18 hours), and supernatants are harvested at the end of incubation. IL-6 levels in the supernatants are determined by the ELISA kits for IL-6 (MedSystems Diagnostics GmbH, Vienna, Austria, Cat. No. BMS213TEN) according to manufacture's instructions. The extent of inhibition of IL-6 by test compounds is expressed in percentage relative to positive controls. IC50 values of test compounds are derived by non-linear curve fitting.
Evaluation of agonist or antagonist activity of compounds binding to the glucocorticoid receptor may be determined by any of the assays.
3. Modulation of Tyrosine Aminotransferase (TAT) Induction in Rat Hepatoma Cells
Testing of compounds for agonist or antagonist activity in induction of tyrosine aminotransferase (TAT) in rat hepatoma cells.
H4-II-E-C3 cells were incubated overnight in 96 well plates (20,000 cells/100 μL/well) in MEM medium containing 10% heat inactivated FBS and 1% nonessential amino acids. On the next day, cells were stimulated with the indicated concentrations of dexamethasone or test compound (dissolved in DMSO, final DMSO concentration 0.2%) for 18 hours. Control cells were treated with 0.2% DMSO. After 18 hours, the cells were lysed in a buffer containing 0.1% Triton X-100 and the TAT activity was measured in a photometric assay using tyrosine and alpha-ketoglutarate as substrates.
For measuring antagonist activity, the hepatoma cells were pre-stimulated by addition of dexamethasone (concentration ranges from 3×10^−9 M to 3×10^−8 M) shortly before the test compound was applied to the cells.
4. Modulation of MMTV-Luc Induction in HeLa Cells
Testing of compounds for agonist or antagonist activity in stimulation of MMTV-(mouse mammary tumor virus) promoter in HeLa cells.
Cells were cultured overnight in DMEM medium without phenol red, supplemented with 3% CCS (charcoal treated calf serum) and then transferred to 96 well plates (15,000 cells/100 μL/well).

[1] = target: T1, human glucocorticoid receptor (GR) complex (Homo sapiens, UniProt P04150); assay: Glucocorticoid Receptor Competitive Binding Assay (fluorescence polarization, TAMRA-labeled dexamethasone probe); details: qualitative statement; competition with TAMRA-labeled dexamethasone
T1 construct: made in house; host or cells: insect expression system (baculovirus lysate)
T1 sequence (P04150 1-777): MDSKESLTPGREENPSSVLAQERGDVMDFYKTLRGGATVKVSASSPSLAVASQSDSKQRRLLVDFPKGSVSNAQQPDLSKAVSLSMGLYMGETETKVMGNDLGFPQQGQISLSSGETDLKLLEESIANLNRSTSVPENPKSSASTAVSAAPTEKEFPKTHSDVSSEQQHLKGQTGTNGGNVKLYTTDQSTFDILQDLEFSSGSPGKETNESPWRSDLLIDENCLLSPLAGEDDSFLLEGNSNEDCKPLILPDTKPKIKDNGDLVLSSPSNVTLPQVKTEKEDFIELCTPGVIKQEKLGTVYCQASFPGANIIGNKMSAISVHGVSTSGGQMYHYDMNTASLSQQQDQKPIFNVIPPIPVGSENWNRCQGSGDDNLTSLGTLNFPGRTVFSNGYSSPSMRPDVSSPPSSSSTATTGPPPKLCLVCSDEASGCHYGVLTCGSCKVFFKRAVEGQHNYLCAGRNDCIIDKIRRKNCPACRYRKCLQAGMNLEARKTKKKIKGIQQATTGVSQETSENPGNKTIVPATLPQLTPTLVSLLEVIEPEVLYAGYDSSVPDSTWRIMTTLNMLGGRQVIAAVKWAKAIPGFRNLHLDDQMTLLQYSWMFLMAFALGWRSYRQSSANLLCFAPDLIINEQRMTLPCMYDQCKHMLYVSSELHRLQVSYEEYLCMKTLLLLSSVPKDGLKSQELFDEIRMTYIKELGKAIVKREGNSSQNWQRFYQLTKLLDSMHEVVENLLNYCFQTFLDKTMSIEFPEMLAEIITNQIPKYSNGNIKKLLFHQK
Outline: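 Competition with TAMRA-dexamethasone for a human GR complex expressed in insect cells, read by fluorescence polarization. Buffer was 10 mM TES, 50 mM KCl, 20 mM Na2MoO4, 1.5 mM EDTA, 0.04% CHAPS, 10% glycerol, 1 mM DTT, pH 7.4.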

activity in the GR binding assay [1] | Compound | activity as agonists of the glucocorticoid receptor function in one or more of the above assays (glucocorticoid receptor)
 | CC(C)(CC(O)(Cn1cc(C#N)c2ccccc21)C(F)(F)F)c1cccc2c1OCC2 (stereo not shown) | potent agonists
 | CC(C)(CC(O)(Cc1cc2cc(C#N)ccc2[nH]1)C(F)(F)F)c1cccc2c1OCC2 (stereo not shown) | potent agonists
 | COc1ccc(Br)cc1C(C)(C)CC(O)(Cc1cc2c(C)cc(C#N)cc2[nH]1)C(F)(F)F (stereo not shown) | potent agonists
potent activity | COc1ccccc1C(C)(C)CC(O)(Cc1cc2ccccc2[nH]1)C(F)(F)F (stereo not shown) [1,1,1-Trifluoro-2-(1H-indol-2-ylmethyl)-4-(2-methoxyphenyl)-4-methylpentan-2-ol] | potent agonists
potent activity | CC(C)(CC(O)(Cc1cc2ccccc2[nH]1)C(F)(F)F)c1cccc(C(F)(F)F)c1 (stereo not shown) [1,1,1-Trifluoro-2-(1H-indol-2-ylmethyl)-4-methyl-4-(3-trifluoromethylphenyl)pentan-2-ol] | potent agonists
potent activity | Cc1cc2c(c(C(C)(C)CC(O)(Cc3cc4ccccc4[nH]3)C(F)(F)F)c1)OCC2 (stereo not shown) [1,1,1-Trifluoro-2-(1H-indol-2-ylmethyl)-4-methyl-4-(5-methyl-2,3-dihydrobenzofuran-7-yl)pentan-2-ol] | potent agonists
potent activity | Cc1cccc(C(C)(C)CC(O)(Cc2cc3ccccc3[nH]2)C(F)(F)F)c1 (stereo not shown) [1,1,1-Trifluoro-2-(1H-indol-2-ylmethyl)-4-methyl-4-m-tolylpentan-2-ol] | potent agonists
potent activity | Cc1ccccc1C(C)(C)CC(O)(Cc1cc2ccccc2[nH]1)C(F)(F)F (stereo not shown) [1,1,1-Trifluoro-2-(1H-indol-2-ylmethyl)-4-methyl-4-o-tolylpentan-2-ol] | potent agonists
potent activity | COc1ccc(F)cc1C(C)(C)CC(O)(Cc1cc2cccc(F)c2[nH]1)C(F)(F)F (stereo not shown) [1,1,1-Trifluoro-2-(7-fluoro-1H-indol-2-ylmethyl)-4-(5-fluoro-2-methoxyphenyl)-4-methylpentan-2-ol] | potent agonists
potent activity | COc1ccccc1C(C)(C)CC(O)(Cc1ccnc2ccccc12)C(F)(F)F (stereo not shown) [1,1,1-Trifluoro-4-(2-methoxyphenyl)-4-methyl-2-quinolin-4-ylmethylpentan-2-ol] | potent agonists
potent activity | Cc1cccc2[nH]c(CC(O)(CC(C)(C)c3cccc(F)c3)C(F)(F)F)cc12 (stereo not shown) [1,1,1-Trifluoro-4-(3-fluorophenyl)-4-methyl-2-(4-methyl-1H-indol-2-ylmethyl)pentan-2-ol] | potent agonists
potent activity | COc1cccc(C(C)(C)CC(O)(Cc2ccnc3ccccc23)C(F)(F)F)c1 (stereo not shown) [1,1,1-Trifluoro-4-(3-methoxyphenyl)-4-methyl-2-quinolin-4-ylmethylpentan-2-ol] | potent agonists
potent activity | COc1cc(F)ccc1C(C)(C)CC(O)(Cc1cc2ccccc2[nH]1)C(F)(F)F (stereo not shown) [1,1,1-Trifluoro-4-(4-fluoro-2-methoxyphenyl)-2-(1H-indol-2-ylmethyl)-4-methylpentan-2-ol] | potent agonists
potent activity | COc1cc(F)ccc1C(C)(C)CC(O)(Cc1cc2ccncc2[nH]1)C(F)(F)F (stereo not shown) [1,1,1-Trifluoro-4-(4-fluoro-2-methoxyphenyl)-4-methyl-2-(1H-pyrrolo[2,3-c]pyridin-2-ylmethyl)pentan-2-ol] | potent agonists
potent activity | COc1cc(F)ccc1C(C)(C)CC(O)(Cc1cc2cnccc2[nH]1)C(F)(F)F (stereo not shown) [1,1,1-Trifluoro-4-(4-fluoro-2-methoxyphenyl)-4-methyl-2-(1H-pyrrolo[3,2-c]pyridin-2-ylmethyl)pentan-2-ol] | potent agonists
potent activity | COc1cc(F)ccc1C(C)(C)CC(O)(Cc1ccnc2c1CCCC2)C(F)(F)F (stereo not shown) [1,1,1-Trifluoro-4-(4-fluoro-2-methoxyphenyl)-4-methyl-2-(5,6,7,8-tetrahydroquinolin-4-ylmethyl)pentan-2-ol] | potent agonists
potent activity | COc1cc(F)ccc1C(C)(C)CC(O)(Cc1ccnc2ccccc12)C(F)(F)F (stereo not shown) [1,1,1-Trifluoro-4-(4-fluoro-2-methoxyphenyl)-4-methyl-2-quinolin-4-ylmethylpentan-2-ol] | potent agonists
 | Cc1ccc(F)cc1C(C)(C)CC(O)(Cc1cc2ccncc2[nH]1)C(F)(F)F (stereo not shown) [1,1,1-Trifluoro-4-(5-fluoro-2-methylphenyl)-4-methyl-2-(1H-pyrrolo[2,3-c]pyridin-2-ylmethyl)pentan-2-ol] | potent agonists
 | COc1ccc(F)cc1C(C)(C)CC(O)(Cc1cc2ccccc2[nH]1)C1CC1 (stereo not shown) [2-Cyclopropyl-4-(5-fluoro-2-methoxyphenyl)-1-(1H-indol-2-yl)-4-methylpentan-2-ol] | agonists
 | CC(C)(CC(O)(Cc1[nH]c2ccccc2c1C#N)C(F)(F)F)c1cccc2c1OCC2 (stereo not shown) [2-[4-(2,3-Dihydrobenzofuran-7-yl)-2-hydroxy-4-methyl-2-trifluoromethylpentyl]-1H-indole-3-carbonitrile] | potent agonists
